By MIC is commonly meant the lowest concentration found to suppress growth.

The test system of series [1] is Staphylococcus aureus. Kind of series: Antimicrobial activity against Staphylococcus aureus ATCC25923 by two fold broth microdilution method. Type of series: functional. Conditions: read-out: MIC. (In general: Dilution methods test growth across graded concentrations, often in twofold steps.)
Series [2] has as its system Staphylococcus aureus. Kind of series: Antimicrobial activity against clinical isolates Staphylococcus aureus by two fold broth microdilution method. The series is classed as functional.
The next series concerns Bacillus cereus. Kind of series: Antimicrobial activity against clinical isolates Bacillus cereus by two fold broth microdilution method. The series is classed as functional.
The test system of series [3] is Escherichia coli. Kind of series: Antimicrobial activity against Escherichia coli ATCC27622 by two fold broth microdilution method. The series is classed as functional.
The subject of series [4] is Vibrio parahaemolyticus. Put plainly: Antimicrobial activity against Vibrio parahaemolyticus ATCC17802 by two fold broth microdilution method. Type of series: functional.
Series [5] has as its system Vibrio parahaemolyticus. Put plainly: Induction of bacterial resistance in Vibrio parahaemolyticus ATCC17802 assessed as fold increase in MIC treated over 30 serial passages measured after 24 hrs. The series is classed as functional.
Series [6] relates to Vibrio parahaemolyticus. Kind of series: Bactericidal activity against Vibrio parahaemolyticus ATCC17802 assessed as killing rate at 0.5 X MIC by measuring time limit of detection by bacterial killing kinetic assay. The series is classed as functional.
Series [7] deals with Vibrio parahaemolyticus. Put plainly: Induction of morphological changes in Vibrio parahaemolyticus ATCC17802 assessed as massive cell collapse incubated at 5 times MIC and measured after 180 mins by scanning electron microscopy based analysis. The series is classed as functional, organism-based.
Series [8] has as its system Vibrio parahaemolyticus. Kind of series: Induction of morphological changes in Vibrio parahaemolyticus ATCC17802 assessed as surface fibrosis incubated at 5 times MIC and measured after 180 mins by scanning electron microscopy based analysis. Type of series: functional, organism-based.
In series [9] the test system is Vibrio parahaemolyticus. Put plainly: Induction of morphological changes in Vibrio parahaemolyticus ATCC17802 assessed as cellular inclusion leakage incubated at 5 times MIC and measured after 180 mins by scanning electron microscopy based analysis. Type of series: functional, organism-based.
The subject of a further series is HaCaT. Put plainly: Cytotoxicity against human HaCaT cells incubated for 48 hrs by MTT assay. The series is classed as toxicity, cell-based. Conditions: dose < 250 µg/ml. Background: Tetrazolium assays rely on reduction of a dye to a coloured formazan, in cell work by metabolically active cells.
The subject of another series is Peritoneal macrophage. Put plainly: Cytotoxicity against mouse peritoneal macrophage cells incubated for 48 hrs by MTT assay. The series is classed as toxicity, cell-based. Conditions: dose < 250 µg/ml.
Another series has as its system Cell membrane. Kind of series: Induction of inner membrane permeabilization in Vibrio parahaemolyticus ATCC17802 assessed as increase in PI fluorescence intensity at 5 times MIC by propidium iodide penetration assay. The conditions noted are these: time <= 200.0 min. The series is classed as cell membranes.
For series [10], the system named is Staphylococcus aureus. Put plainly: Bactericidal activity against Staphylococcus aureus ATCC25923 assessed as killing rate at 0.5 X MIC measured upto 180 min by bacterial killing kinetic assay. Type of series: functional, organism-based.
Series [11] concerns Escherichia coli. Kind of series: Bactericidal activity against Escherichia coli ATCC25722 assessed as killing rate at 0.5 X MIC measured upto 180 min by bacterial killing kinetic assay. Type of series: functional, organism-based.

Values after ≈ are worked out from the molar mass of the structure shown. Active and inactive are the calls of the source. The calls are words filed in the database; no cut-off is given here. Where a SMILES comes first, the peptide text is derived from it.

With `CC1(C)S[C@@H]2[C@H](NC(=O)[C@H](N)c3ccccc3)C(=O)N2[C@H]1C(=O)O` [AMPICILLIN], the MIC was 0.59 µg/mL (≈ 1.69 µM) in the series with Staphylococcus aureus [1]; more than 200 µg/mL against Staphylococcus aureus [2]; 4.69 µg/mL (≈ 13.4 µM) with Bacillus cereus; 2.34 µg/mL (≈ 6.7 µM) in the series with Escherichia coli [3]; 0.59 µg/mL (≈ 1.69 µM) against Vibrio parahaemolyticus [4]. The “fold change (FC)” value in the series with Vibrio parahaemolyticus [5] is 32.
Consider `CC[C@H](C)[C@H](NC(=O)[C@H](CCCCN)NC(=O)[C@H](CCCNC(=N)N)NC(=O)[C@H](C)NC(=O)[C@H](CC(C)C)NC(=O)[C@H](CCCCN)NC(=O)[C@H](CCCCN)NC(=O)[C@H](Cc1ccccc1)NC(=O)[C@H](CC(C)C)NC(=O)CNC(=O)[C@@H](N)CCCNC(=N)N)C(=O)N[C@@H](CCCCN)C(=O)N[C@@H](CCCCN)C(=O)NCC(=O)N[C@@H](Cc1ccccc1)C(=O)N[C@@H](CCCCN)C(=O)N[C@@H](CCCCN)C(=O)O` (H-RGLFKKLARKIKKGFKK-OH), for which the MIC in the series on Staphylococcus aureus [1] stood at 4.69 µg/mL (≈ 2.29 µM); against Staphylococcus aureus [2], 37.5 µg/mL (≈ 18.3 µM); with Bacillus cereus, 9.38 µg/mL (≈ 4.58 µM); in the series on Escherichia coli [3], 9.38 µg/mL (≈ 4.58 µM); in the series on Vibrio parahaemolyticus [4], 4.69 µg/mL (≈ 2.29 µM). In addition, the Time in the series with Vibrio parahaemolyticus [6] is listed as more than 180 min. For the same molecule, the outcome in the series on Vibrio parahaemolyticus [7], with Vibrio parahaemolyticus [8], in the series on Vibrio parahaemolyticus [9] and with Cell membrane was Active. Further, the Activity entry in the series with HaCaT and with Peritoneal macrophage was “Dose-Dependent Effect” each time.
Take `CC[C@H](C)[C@H](NC(=O)[C@H](CCCCN)NC(=O)[C@H](CCCCN)NC(=O)[C@H](C)NC(=O)[C@H](CCCCN)NC(=O)[C@H](CCCCN)NC(=O)[C@H](CC(C)C)NC(=O)[C@@H](NC(=O)[C@H](CCCCN)NC(=O)[C@H](CCCCN)NC(=O)[C@H](Cc1c[nH]c2ccccc12)NC(=O)[C@H](Cc1ccccc1)NC(=O)[C@H](CCCCN)NC(=O)[C@H](CCCNC(=N)N)NC(=O)[C@H](CCCNC(=N)N)NC(=O)[C@@H](N)CCCCN)C(C)C)C(=O)N[C@@H](C)C(=O)O` (H-KRRKFWKKVLKKAKKIA-OH): the MIC in the series with Staphylococcus aureus [1] came out at 2.34 µg/mL (≈ 1.08 µM); against Staphylococcus aureus [2], 18.8 µg/mL (≈ 8.69 µM); against Bacillus cereus, 4.69 µg/mL (≈ 2.17 µM); in the series on Escherichia coli [3], 9.38 µg/mL (≈ 4.35 µM); in the series with Vibrio parahaemolyticus [4], 4.69 µg/mL (≈ 2.17 µM). For the same molecule, in the series on Vibrio parahaemolyticus [6], the Time is recorded as more than 180 min. Moreover, the result with Staphylococcus aureus [10] and in the series on Escherichia coli [11] was Active.
Consider `CC[C@H](C)[C@H](NC(=O)[C@H](CCCCN)NC(=O)[C@H](CC(C)C)NC(=O)[C@H](C)NC(=O)CNC(=O)[C@H](CC(N)=O)NC(=O)[C@H](CC(C)C)NC(=O)[C@@H](NC(=O)[C@H](CCCCN)NC(=O)[C@H](CCCCN)NC(=O)[C@H](Cc1c[nH]c2ccccc12)NC(=O)[C@H](Cc1ccccc1)NC(=O)[C@H](CCCCN)NC(=O)[C@H](CCCNC(=N)N)NC(=O)[C@H](CCCNC(=N)N)NC(=O)[C@@H](N)[C@@H](C)O)C(C)C)C(=O)N[C@@H](C)C(=O)O` (H-TRRKFWKKVLNGALKIA-OH), for which the MIC in the series with Staphylococcus aureus [1] came out at 4.69 µg/mL (≈ 2.31 µM); in the series on Staphylococcus aureus [2], 18.8 µg/mL (≈ 9.24 µM); with Bacillus cereus it was 9.38 µg/mL (≈ 4.62 µM); in the series with Escherichia coli [3], 9.38 µg/mL (≈ 4.62 µM); with Vibrio parahaemolyticus [4], 4.69 µg/mL (≈ 2.31 µM). For the same molecule, the Time in the series on Vibrio parahaemolyticus [6] is given as 30 min. Also, the outcome in the series on Staphylococcus aureus [10] and in the series on Escherichia coli [11] was Active.
As to `CC[C@H](C)[C@H](NC(=O)[C@H](C)NC(=O)[C@H](CCCNC(=N)N)NC(=O)[C@H](C)NC(=O)[C@H](CC(C)C)NC(=O)[C@H](CCCCN)NC(=O)[C@H](CCCCN)NC(=O)[C@H](Cc1ccccc1)NC(=O)[C@H](CC(C)C)NC(=O)CNC(=O)[C@H](C)N)C(=O)N[C@@H](CCCCN)C(=O)N[C@@H](CCCCN)C(=O)NCC(=O)N[C@@H](Cc1ccccc1)C(=O)N[C@@H](CCCCN)C(=O)N[C@@H](CCCCN)C(=O)O` (H-AGLFKKLARAIKKGFKK-OH), the MIC in the series on Staphylococcus aureus [1] was determined as 4.69 µg/mL (≈ 2.46 µM); against Staphylococcus aureus [2], 18.8 µg/mL (≈ 9.85 µM); against Bacillus cereus, 9.38 µg/mL (≈ 4.93 µM); with Escherichia coli [3], 9.38 µg/mL (≈ 4.93 µM); in the series on Vibrio parahaemolyticus [4] it was 4.69 µg/mL (≈ 2.46 µM). Also, the Time in the series with Vibrio parahaemolyticus [6] is recorded as more than 180 min. Moreover, the result with Vibrio parahaemolyticus [7], in the series with Vibrio parahaemolyticus [8], in the series with Vibrio parahaemolyticus [9] and in the series with Cell membrane was Active. Besides, the Activity entry in the series on HaCaT and in the series with Peritoneal macrophage was “Dose-Dependent Effect” throughout.
With `CC[C@H](C)[C@H](NC(=O)[C@H](CCCCN)NC(=O)[C@H](CCCCN)NC(=O)[C@H](CC(C)C)NC(=O)[C@H](CCCCN)NC(=O)[C@H](CCCCN)NC(=O)[C@H](CC(C)C)NC(=O)[C@@H](NC(=O)[C@H](CCCCN)NC(=O)[C@H](CCCCN)NC(=O)[C@H](Cc1c[nH]c2ccccc12)NC(=O)[C@H](Cc1ccccc1)NC(=O)[C@H](CCCCN)NC(=O)[C@H](CCCNC(=N)N)NC(=O)[C@H](CCCNC(=N)N)NC(=O)[C@@H](N)CCCCN)C(C)C)C(=O)N[C@@H](CC(C)C)C(=O)O` (H-KRRKFWKKVLKKLKKIL-OH), the MIC stood at 2.34 µg/mL (≈ 1.04 µM) in the series on Staphylococcus aureus [1]; 9.38 µg/mL (≈ 4.19 µM) against Staphylococcus aureus [2]; 4.69 µg/mL (≈ 2.09 µM) in the series with Bacillus cereus; 4.69 µg/mL (≈ 2.09 µM) against Escherichia coli [3]; 2.34 µg/mL (≈ 1.04 µM) in the series with Vibrio parahaemolyticus [4]. Moreover, the Time in the series on Vibrio parahaemolyticus [6] came out at 15 min. Also, the result in the series on Staphylococcus aureus [10] and with Escherichia coli [11] was Active.

Source of the values: ChEMBL document CHEMBL5236579, “Hydrophobicity Determines the Bacterial Killing Rate of α-Helical Antimicrobial Peptides and Influences the Bacterial Resistance Development” (J Med Chem, 2022).
